From US8304408B2, “Wnt signaling inhibitors, and methods for making and using them” (The Regents of the University of California, priority 2007, dated 2012)
Converted amounts (≈) assume the structure as drawn.

Key:
[1] = tested on: TCF/LEF dependent reporter gene (wnt/beta-catenin signaling) in HEK293 cells; assay: Top-flash assay: HEK293 cells transfected with a TCF/LEF dependent reporter gene; assay type: cell-based; conditions: for inhibition of wnt-signaling path in HEK293 reporter assay: even at concentrations of 50 uM
Method: FIG. 2 in graphic form illustrates data comparing inhibition of beta-catenin in a “Top-flash assay.” In this assay HEK 293 cells were transfected with a TCF/LEF dependent reporter gene and expression plasmid for Dsh. After overnight incubation, the cells were treated with the indicated amounts of debromohymenialdesine (“MC-001”, or dBHD, or dbHD), which is compound I in FIG. 1, analog II and III, or vehicle alone, after which the reporter gene activity was measured. All cells were also transfected with a reporter gene control for testing the transfection efficiency. In FIG. 2, the first pair of bars (to the left, closest to the y, or “fold induction”, axis) is DMSO, then moving right, the second pair of bars is 5 μM debromohymenialdesine, or dbHD (compound I of FIG. 1), then 10 μM dbHD, then 20 μM dbHD, then 50 μM compound II of FIG. 1, then 50 μM compound III of FIG. 1.
A dose response curve for debromohymenialdesine, or “MC-001”, or dbHD (or dBHD), (compound I of FIG. 1) from the HEK293 cell line assay is shown in FIG. 3. The curve is well behaved showing a relatively steep sigmoidal inhibition-concentration profile with an IC50 value of 2 uM.

[2] = Storage stability; assay type: physicochemical; conditions: at RT
[3] = tested on: GMP from advanced phase CML; assay: Replating efficiency of CML GMP; assay type: cell-based; conditions: replating efficiency after day 10 colony replating in methylcellulose
Method: (§1) On day 10, individual colonies were plucked and replicated in new methylcellulose and the replating efficiency was determined.

[4] = log P (partition coefficient); assay type: physicochemical
[5] = tested on: BALB/C mice; assay: Toxicity tests in mice; assay type: in vivo; conditions: for toxic / adverse effects in mice: doses up to 100 mg/kg
[6] = tested on: normal HSC; assay: Replating of normal HSC; assay type: cell-based; conditions: at doses that inhibited CML HSC and GMP
Method: as §1

[7] = Solubility in water; assay type: physicochemical
[8] = tested on: chronic myelogenous leukemia stem cell (CML HSC); assay: Replating efficiency (self-renewal) of CML hematopoietic stem cells; assay type: cell-based; conditions: for self-renewal / replating efficiency of leukemia stem cells: 2 uM drug concentration; for inhibition of CML HSC replating: replating efficiency after day 10 colony replating in methylcellulose
Method: as §1

Molecule: NC1=NC(=O)/C(=C2\CCNC(=O)c3[nH]c(Br)cc32)N1 [Hymenialdesine, hymenialdesine, reference compound]
- inhibition of wnt-signaling path in HEK293 reporter assay [1]: did not inhibit

Molecule: NC1=NC(=O)/C(=C2\CCNC(=O)c3[nH]ccc32)N1 [debromohymenialdesine, (4Z)-4-(2-amino-5-oxo-3,5-dihydro-4H-imidazol-4-ylidene)-4,5,6,7-tetrahy-dropyrrolo(2,3-c)azepin-8(1H)-one]
- Storage stability [2]: several months
- inhibition of CML GMP replating [3]: inhibited
- logP [4]: -0.58
- toxic / adverse effects in mice ([5]; listed as MC-001): no adverse affects
- toxic / adverse effects in mice ([5]; listed as dBHD): no toxic effects
- tolerability in mice ([5]; mouse, in vivo): well tolerated
- effect on normal HSC replating [6]: spared
- inhibition of wnt-signaling in HEK293 cells transfected with a TCF/LEF dependent reporter gene [1]: inhibited
- IC50 ([1]; Homo sapiens, HEK293 cells, TCF/LEF dependent reporter gene, read-out: IC50 from dose response curve, HEK293 cell line assay): 2 µM
- activity of synthetically obtained compound versus natural product ([1]; compound made by total synthesis, cell based reporter system): comparable to the natural product
- solubility [7]: 22 µg/mL (≈ 89.7 µM)
- self-renewal / replating efficiency of leukemia stem cells [8]: completely abrogated
- self-renewal / replating efficiency of leukemia stem cells ([8]; listed as MC-001): completely abrogates
- inhibition of CML HSC replating [8]: inhibited

Molecule: NC1=N[C@]23CCCN2C(=O)c2cc(Br)c(Br)n2[C@@H]3N1 [dibromophakelin, reference compound]
- inhibition of wnt-signaling path in HEK293 reporter assay [1]: did not inhibit

Molecule: c1ccc2nc3ccccc3c-2nc1 [indoloazepine, reference compound]
- inhibition of wnt-signaling path in HEK293 reporter assay [1]: did not inhibit

B1: Recombinant Dkk1: recombinant Dkk1, a Wnt inhibitor used as comparator (protein, UniProt O94907 32-266, looked up)
Dickkopf-related protein 1: TLNSVLNSNAIKNLPPPLGGAAGHPGSAVSAAPGILYPGGNKYQTIDNYQPYPCAEDEECGTDEYCASPTRGGDAGVQICLACRKRRKRCMRHAMCCPGNYCKNGICVSSDQNHFRGEIEETITESFGNDHSTLDGYSRRTTLSSKMYHTKGQEGSVCLRSSDCASGLCCARHFWSKICKPVLKEGQVCTKHRRKGSHGLEIFQRCYCGEGLSCRIQKDHHQASNSSRLHTCQRH
- inhibition of CML HSC replating [8]: did not inhibit
